Measurements from patent US11214803B2, “Modulators of YAP1 expression” (Ionis Pharmaceuticals, Inc., priority 2019, dated 2022).
Strand notation (5' to 3'): a small letter for the sugar, then the base; units joined by * are phosphorothioate-linked, units joined directly phosphodiester-linked; [ ] holds rarer units or linkages, { } end groups; capitals alone tell only the bases. k = constrained ethyl (cEt); [5mC] = 5-methylcytosine; d = 2'-deoxy (DNA)

System: Yap1 mRNA
Assay: Dose-dependent inhibition of human Yap1 in A-431 cells (Example 8, 10,000 cells per well, RTS4814)
Format: cell-based
Conditions: free uptake, approximately 48 hours, RTS4814; for Yap1 mRNA, % UTC: A-431 cells, 10,000 cells per well; for IC50: A-431 cells, linear regression on log/linear plot
Summary of the method: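 A-431 cells (10,000/well) dosed with modified oligonucleotides by free uptake; Yap1 mRNA measured ~48 h later with primer-probe set RTS4814, normalized to total RNA (RIBOGREEN). Values are % of untreated control; IC50 from linear regression on log/linear plot.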

| Substance | Yap1 mRNA, % UTC (31.3 nM) | Yap1 mRNA, % UTC (125.0 nM) | Yap1 mRNA, % UTC (500.0 nM) | Yap1 mRNA, % UTC (2000.00 nM) | IC50 |
| --- | --- | --- | --- | --- | --- |
| 1076294 (kT*kA*kT*dA*dT*dT*dA*dG*dT*dG*d[5mC]*d[5mC]*d[5mC]*k[5mC]*k[5mC]*kT; antisense) [compound 1076294] | 76 % UTC | 50 % UTC | 21 % UTC | 11 % UTC | 100 nM |
| 1076295 (kG*kT*kA*dT*dA*dT*dT*dA*dG*dT*dG*d[5mC]*d[5mC]*k[5mC]*k[5mC]*k[5mC]; antisense) [compound 1076295] | 55 % UTC | 17 % UTC | 5 % UTC | 3 % UTC | < 20 nM |
| 1076298 (kG*kT*kT*dA*dT*dA*dA*dA*dG*dA*d[5mC]*d[5mC]*d[5mC]*kA*kA*kT; antisense) [compound 1076298] | 92 % UTC | 58 % UTC | 29 % UTC | 18 % UTC | 200 nM |
| 1076299 (k[5mC]*kG*kT*dT*dA*dT*dA*dA*dA*dG*dA*d[5mC]*d[5mC]*k[5mC]*kA*kA; antisense) [compound 1076299] | 68 % UTC | 38 % UTC | 13 % UTC | 5 % UTC | 100 nM |
| 1076323 (k[5mC]*kA*kA*dT*dT*dT*dA*d[5mC]*dA*dA*dG*dT*dG*kA*kG*k[5mC]; antisense) [compound 1076323] | 41 % UTC | 35 % UTC | 13 % UTC | 5 % UTC | < 20 nM |
| 1076326 (kG*k[5mC]*kT*dA*dA*dT*dA*dA*dT*dG*dG*dA*dA*kG*kA*kG; antisense) [compound 1076326] | 53 % UTC | 20 % UTC | 6 % UTC | 3 % UTC | < 20 nM |
| 1076327 (kG*kA*kT*dA*dA*dG*d[5mC]*dA*dA*dG*dG*dT*dT*k[5mC]*kT*k[5mC]; antisense) [compound 1076327] | 73 % UTC | 38 % UTC | 17 % UTC | 9 % UTC | 100 nM |
| 1076330 (antisense kG*kA*kA*dT*dT*dA*dT*dA*d[5mC]*dT*dG*dG*d[5mC]*kT*kA*k[5mC]) [compound 1076330] | 57 % UTC | 31 % UTC | 9 % UTC | 4 % UTC | 40 nM |
| 1076386 (antisense kA*kG*kT*dT*dA*dT*dA*dA*d[5mC]*dA*dG*dT*dG*kT*kA*kA) [compound 1076386] | 61 % UTC | 30 % UTC | 11 % UTC | 5 % UTC | 40 nM |
| 1076388 (antisense kG*kA*kA*dA*dT*dA*dT*dT*d[5mC]*dG*dA*dG*dA*kA*kG*kA) [compound 1076388] | 87 % UTC | 40 % UTC | 13 % UTC | 6 % UTC | 100 nM |
| 1076393 (antisense k[5mC]*kT*kT*dT*dA*d[5mC]*dT*dT*dA*d[5mC]*dT*dG*dG*kT*kG*kG) [compound 1076393] | 54 % UTC | 20 % UTC | 8 % UTC | 5 % UTC | < 20 nM |
| 1076416 (kA*k[5mC]*k[5mC]*dG*dA*dA*dA*dT*dG*dA*dT*dA*d[5mC]*kT*kG*kA; antisense) [compound 1076416] | 67 % UTC | 33 % UTC | 13 % UTC | 7 % UTC | 100 nM |
| 1076426 (kA*k[5mC]*kG*dG*dG*dA*dA*dA*dA*dT*dT*d[5mC]*dT*kG*kG*kA; antisense) [compound 1076426] | 68 % UTC | 46 % UTC | 24 % UTC | 18 % UTC | 100 nM |
| 1076427 (k[5mC]*kA*kA*dA*dT*dT*dT*dA*d[5mC]*dT*dG*dA*dT*k[5mC]*kT*k[5mC]; antisense) [compound 1076427] | 75 % UTC | 30 % UTC | 9 % UTC | 4 % UTC | 100 nM |
| 1076448 (k[5mC]*kT*kT*dA*dT*dA*dA*dT*dG*d[5mC]*dA*dA*dT*k[5mC]*k[5mC]*kT; antisense) [compound 1076448] | 61 % UTC | 19 % UTC | 4 % UTC | 3 % UTC | < 20 nM |
| 1076449 (k[5mC]*k[5mC]*kT*dT*dA*dT*dA*dA*dT*dG*d[5mC]*dA*dA*kT*k[5mC]*k[5mC]; antisense) [compound 1076449] | 44 % UTC | 8 % UTC | 3 % UTC | 2 % UTC | < 20 nM |
| 1076456 (k[5mC]*kT*kT*dT*dA*dA*dA*dG*dT*dG*dT*dA*dT*kG*kT*k[5mC]) [compound 1076456] | 43 % UTC | 14 % UTC | 5 % UTC | 3 % UTC | < 20 nM |
| 1076458 (k[5mC]*kT*kT*dA*dA*dT*dT*dA*dG*d[5mC]*d[5mC]*dT*d[5mC]*kA*kG*kT; antisense) [compound 1076458] | 88 % UTC | 52 % UTC | 23 % UTC | 10 % UTC | 200 nM |
| 1076459 (k[5mC]*kT*kT*d[5mC]*dA*dA*d[5mC]*dA*dA*dG*dA*d[5mC]*dA*kG*kG*kT; antisense) [compound 1076459] | 67 % UTC | 32 % UTC | 13 % UTC | 7 % UTC | 100 nM |
| 1076483 (kA*k[5mC]*kG*dG*dG*dA*dA*dA*dT*d[5mC]*dA*dT*dA*kT*kA*kG; antisense) [compound 1076483] | 63 % UTC | 27 % UTC | 11 % UTC | 6 % UTC | 40 nM |
| 1076486 (kG*kA*kA*dA*d[5mC]*dG*dA*dA*dA*d[5mC]*dG*dG*dG*kA*kA*kA; antisense) [compound 1076486] | 84 % UTC | 45 % UTC | 16 % UTC | 6 % UTC | 100 nM |
| 1076489 (k[5mC]*kA*kA*dA*dA*dT*dA*dG*dG*dT*dG*dA*dG*kT*k[5mC]*kA; antisense) [compound 1076489] | 43 % UTC | 13 % UTC | 4 % UTC | 3 % UTC | < 20 nM |
| 1076490 (k[5mC]*k[5mC]*kA*dA*dA*dA*dT*dA*dG*dG*dT*dG*dA*kG*kT*k[5mC]; antisense) [compound 1076490] | 36 % UTC | 9 % UTC | 4 % UTC | 3 % UTC | < 20 nM |
| 1076491 (kA*kG*k[5mC]*d[5mC]*dA*dA*dA*dA*dT*dA*dG*dG*dT*kG*kA*kG; antisense) [compound 1076491] | 81 % UTC | 45 % UTC | 21 % UTC | 10 % UTC | 100 nM |
| 1076516 (k[5mC]*kA*kT*dA*dA*dA*d[5mC]*dA*dT*dG*dA*dG*dT*kG*kG*kT; antisense) [compound 1076516] | 64 % UTC | 39 % UTC | 18 % UTC | 13 % UTC | 100 nM |
